pKi: −log10 of the molar value. Where two headings read alike, the source gives them in different places.
What was measured:
[1] = target: MeCP2_MBD binding to 5-mCpG containing DNA (Homo sapiens (Human), UniProt P51608); test: DNA-protein binding assay, MeCP2_MBD to methylated oligonucleotide; details: His-tagged MeCP2_MBD, read-out: MeCP2 Binding Inhibition (IC50 in μM)
Protocol: (§1) To determine if the “lead” compounds directly interfere with MBD2 binding to ^5−m CpG containing DNA, each “lead” compound is tested for its ability to inhibit such binding using a DNA-protein binding assay. For this assay, a biotinylated and methylated oligonucleotide substrate is bound to a neutravidin-coated high binding capacity 96-well plate. His-tagged MBD2_MBD or MeCP2_MBD binds to the methylated oligonucleotide. An Anti-His-HRP conjugated antibody is used to detect bound protein. Introducing the “lead” compounds into the reaction mix at various concentrations provides a MBD2_MBD-DNA binding curve from which an IC50 is derived.
(§2) DNA binding assays using recombinant MBDs. […] After centrifugation in a microfuge, the soluble protein fraction, containing MBD2, was recovered. A similar approach was used for producing cloned recombinant MeCP2. […] After washing four times with binding buffer and drying wells, TMB is added to each well followed by 1 N HCl, and A450 is measured on a microplate reader. The IC50 for each “lead” compound is derived from the DNA-protein binding curve.

[2] = target: recombinant DNMT1 (Homo sapiens (Human), UniProt P26358); test: DNA methyltransferase activity assay with recombinant DNMT1; format: biochemical; details: for DNMT1 Inhibition (IC50 in μM): recombinant DNMT1
Chain of recombinant DNMT1 (P26358 whole entry): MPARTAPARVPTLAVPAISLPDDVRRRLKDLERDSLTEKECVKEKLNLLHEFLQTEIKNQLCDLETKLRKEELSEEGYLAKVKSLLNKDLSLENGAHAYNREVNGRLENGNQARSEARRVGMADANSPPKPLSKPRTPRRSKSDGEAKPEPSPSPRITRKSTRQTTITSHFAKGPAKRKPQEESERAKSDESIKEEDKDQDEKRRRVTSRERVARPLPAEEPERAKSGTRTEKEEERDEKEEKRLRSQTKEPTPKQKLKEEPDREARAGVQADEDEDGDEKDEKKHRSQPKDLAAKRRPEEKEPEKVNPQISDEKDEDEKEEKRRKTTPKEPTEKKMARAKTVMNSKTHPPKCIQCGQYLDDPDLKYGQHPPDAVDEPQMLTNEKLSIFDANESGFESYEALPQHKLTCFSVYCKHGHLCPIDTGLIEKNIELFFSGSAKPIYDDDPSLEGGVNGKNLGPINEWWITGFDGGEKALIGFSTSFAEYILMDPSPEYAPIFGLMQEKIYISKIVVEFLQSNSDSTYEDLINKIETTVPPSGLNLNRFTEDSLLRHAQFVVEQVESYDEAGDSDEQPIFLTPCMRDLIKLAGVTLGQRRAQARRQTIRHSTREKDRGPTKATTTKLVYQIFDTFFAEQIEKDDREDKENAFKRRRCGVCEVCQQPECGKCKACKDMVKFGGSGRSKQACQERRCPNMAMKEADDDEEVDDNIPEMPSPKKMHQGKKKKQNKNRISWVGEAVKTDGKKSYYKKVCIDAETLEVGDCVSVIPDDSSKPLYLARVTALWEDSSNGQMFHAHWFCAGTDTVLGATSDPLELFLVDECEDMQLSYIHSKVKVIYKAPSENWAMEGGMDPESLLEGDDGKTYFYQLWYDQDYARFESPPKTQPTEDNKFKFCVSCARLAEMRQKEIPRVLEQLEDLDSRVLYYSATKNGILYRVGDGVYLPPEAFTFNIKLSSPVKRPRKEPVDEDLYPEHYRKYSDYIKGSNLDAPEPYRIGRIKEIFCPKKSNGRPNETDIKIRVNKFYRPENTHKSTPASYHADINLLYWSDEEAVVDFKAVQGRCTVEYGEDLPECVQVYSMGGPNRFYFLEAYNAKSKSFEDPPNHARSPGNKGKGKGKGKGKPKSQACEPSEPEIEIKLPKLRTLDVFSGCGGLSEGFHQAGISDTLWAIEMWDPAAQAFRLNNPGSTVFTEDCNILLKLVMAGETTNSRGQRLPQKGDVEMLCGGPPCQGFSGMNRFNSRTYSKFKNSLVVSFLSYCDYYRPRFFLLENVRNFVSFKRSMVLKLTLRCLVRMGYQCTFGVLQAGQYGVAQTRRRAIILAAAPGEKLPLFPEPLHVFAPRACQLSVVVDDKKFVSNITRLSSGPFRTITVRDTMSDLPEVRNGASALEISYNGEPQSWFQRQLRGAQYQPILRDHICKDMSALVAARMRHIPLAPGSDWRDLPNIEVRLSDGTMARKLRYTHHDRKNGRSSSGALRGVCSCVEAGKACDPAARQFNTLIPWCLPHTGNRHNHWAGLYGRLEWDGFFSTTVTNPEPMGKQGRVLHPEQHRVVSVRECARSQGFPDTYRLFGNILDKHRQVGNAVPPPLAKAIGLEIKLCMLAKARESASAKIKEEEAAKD
Text: (§3) The outputs of these experiments were Ki's for each of the DNMT enzymes. When considered along with potency and efficacy data from the screening assays, the results of analyses of “lead” compounds for interference with MBD2 binding to ^5−m CpG-containing DNA, for direct binding to ^5−mCpG-containing DNA, and for inhibition of DNMTs allow prioritization of “lead” compounds. Ideally, “lead” compounds that activate expression from GSTP1 alleles with CpG island hypermethylation at sub-μM concentrations, target MBD2 directly, and fail to inhibit DNMTs, are high-priority “lead” compounds.
DNMT assays using recombinant DNMT1, DNMT3a, and DNMT3b. To produce recombinant DNMT1, full-length DNMT1 cDNA was amplified in two segments by RT-PCR from human brain poly A+ RNA (BD Clontech). Amplification of the upstream segment was performed using the PCR primers (5′-[…]-3′ (SEQ ID NO:4) and 5′-[…]-3′ (SEQ ID NO:5)), and amplification of the downstream segment was performed using the PCR primers (5′-[…]-3′ (SEQ ID NO:6) and 5′-[…]-3′ (SEQ ID NO:7)). The upstream and downstream segments were subcloned into the pCMVscript® vector (Stratagene), and assembled using an internal BstEII site that is common to both segments to create pCMVscript-DNMT1. PCR primers containing EcoRI and KpnI sites (5′-GAATTCCCGGCGCGTACCG-3′ (SEQ ID NO:8) and 5′-[…]-3′ (SEQ ID NO:9)) were used to amplify the DNMT1 coding sequence from pCMVscript-DNMT1. […] This pFB6H-DNMT1 construct was used to transform DH10Bac™ E. coli competent cells (Invitrogen) to generate a recombinant expression bacmid via site-specific transposition. The DNMT1 expression bacmid was transfected into Sf9 insect cells to produce recombinant DNMT1 baculovirus particles, which were subsequently used to infect additional Sf9 cells (1 MOI, 48 hours) for protein production. Recombinant His(6)-(SEQ ID NO:21)-DNMT1 was recovered by Ni2+ affinity chromatography. After lysis in 50 mM Na2HPO4 pH 7.6, 10 mM imidazole, 500 mM NaCl, 1% Igepal CA-630, 10% glycerol, and 1× Complete™ Protease Inhibitor (Roche) by two freeze-thaw cycles, His(6)-(SEQ ID NO:21)-DNMT1 was bound to Ni-NTA agarose (Qiagen) for 1.5 hours at 4° C. The supernatant was removed, and the beads were washed twice with 50 mM Na2HPO4 pH 7.6, 20 mM imidazole, 500 mM NaCl, 10% glycerol, and 1× Complete™ Protease Inhibitor to remove contaminating proteins. The beads were then washed twice with 50 mM Na2HPO4 pH 7.6, 10 mM NaCl, 10% glycerol, and 1× Complete™ Protease Inhibitor to remove excess salt. His(6)-(SEQ ID NO:21)-DNMT1 was eluted from the Ni-NTA agarose by adding 50 mM Na2HPO4 pH 7.6, 250 mM imidazole, 10 mM NaCl, 10% glycerol, and 1× Complete™ Protease Inhibitor. Spin dialysis was used to concentrate the protein and exchange the buffer 50 mM Na2HPO4 pH 7.6, 10 mM NaCl, 1 mM EDTA, 1 mM DTT, 20% glycerol, and 1× Complete™ Protease Inhibitor. Protein concentration was determined using the BCA assay (Pierce). Recombinant DNMT1 was stored at −80° C. until further use.
DNA methyltransferase activity assays were performed by combining 100 nM His(6)-(SEQ ID NO:21)-DNMT with 5′-biotinylated synthetic hemi-methylated or unmethylated oligonucleotide substrate containing 1 μM CG (Top Strand 5′-[…]-3′ (SEQ ID NO:18), Bottom Strand 5′-[…]-3′ (SEQ ID NO:19)) and 1 μM S-adenosyl-L-[methyl-^3H]Methionine™ (Amersham TRK581 60-85 Ci/mmol). After incubation at 37° C. for 30 minutes, reactions were stopped by adding one volume of 10 mM cold S-adenosyl-L-Methionine™ (Sigma). To purify the oligonucleotides, reactions will be added to a SAm^2® 96 Biotin Capture Plate (Promega). The plate was washed 7 times with PBS+2M NaCl and 3 times with dH20 to remove His(6)-(SEQ ID NO:21)-DNMT1 and S-adenosyl-L-methionine.

[3] = target: MBD2_MBD binding to 5-mCpG containing DNA (Homo sapiens (Human), UniProt Q9UBB5); test: DNA-protein binding assay, MBD2_MBD to methylated oligonucleotide; details: His-tagged MBD2_MBD
Chain of MBD2_MBD binding to 5-mCpG containing DNA (Q9UBB5 145-213): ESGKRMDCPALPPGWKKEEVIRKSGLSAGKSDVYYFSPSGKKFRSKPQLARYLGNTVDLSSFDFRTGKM
Protocol: as §1, §2

[4] = system: melanoma; details: cited from earlier work
[5] = system: breast ca; details: cited from earlier work
[6] = system: colon ca; details: cited from earlier work
[7] = system: ovarian ca; details: cited from earlier work
[8] = system: prostate ca; details: n 14, 225 mg/M^2 over 1 day iv; cited from earlier work
[9] = system: lung ca; details: n 15, 200-600 mg/M^2 over 1 day iv; cited from earlier work
[10] = system: mesothelioma; details: cited from earlier work
[11] = target: recombinant DNMT3a (Homo sapiens (Human), UniProt Q9Y6K1); test: DNA methyltransferase activity assay with recombinant DNMT3a; format: biochemical; details: read-out: Ki for inhibition of DNMT3a
Chain of recombinant DNMT3a (Q9Y6K1 whole entry, looked up): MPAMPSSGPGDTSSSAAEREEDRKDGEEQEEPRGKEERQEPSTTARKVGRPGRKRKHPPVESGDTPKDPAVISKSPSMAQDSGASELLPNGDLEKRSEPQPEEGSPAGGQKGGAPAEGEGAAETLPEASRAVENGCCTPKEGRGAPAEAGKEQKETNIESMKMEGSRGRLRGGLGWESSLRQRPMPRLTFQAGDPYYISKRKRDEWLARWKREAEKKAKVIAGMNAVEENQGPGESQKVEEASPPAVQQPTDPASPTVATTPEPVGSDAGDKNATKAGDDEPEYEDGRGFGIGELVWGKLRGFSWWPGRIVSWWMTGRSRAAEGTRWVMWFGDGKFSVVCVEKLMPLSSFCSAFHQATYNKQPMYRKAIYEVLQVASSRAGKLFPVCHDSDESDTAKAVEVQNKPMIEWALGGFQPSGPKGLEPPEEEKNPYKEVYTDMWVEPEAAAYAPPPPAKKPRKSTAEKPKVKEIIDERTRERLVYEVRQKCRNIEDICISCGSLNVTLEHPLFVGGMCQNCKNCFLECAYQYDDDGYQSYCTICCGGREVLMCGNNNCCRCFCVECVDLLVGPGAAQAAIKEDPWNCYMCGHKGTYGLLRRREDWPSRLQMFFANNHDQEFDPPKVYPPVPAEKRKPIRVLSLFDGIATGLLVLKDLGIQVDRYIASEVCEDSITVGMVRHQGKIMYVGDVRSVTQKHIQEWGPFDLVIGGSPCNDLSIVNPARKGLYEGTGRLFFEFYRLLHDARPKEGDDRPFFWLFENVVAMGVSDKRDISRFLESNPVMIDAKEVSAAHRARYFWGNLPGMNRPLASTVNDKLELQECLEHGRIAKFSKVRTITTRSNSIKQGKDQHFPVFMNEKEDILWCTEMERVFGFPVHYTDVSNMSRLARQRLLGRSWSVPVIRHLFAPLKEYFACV
Text: as §3
His(6)-(SEQ ID NO:21)-DNMT3a and His(6)-(SEQ ID NO:21)-DNM3b2 were expressed and purified in Sf9 cells as described above with the following modifications. […]
DNA methyltransferase activity assays were performed by combining 100 nM His(6)-(SEQ ID NO:21)-DNMT with 5′-biotinylated synthetic hemi-methylated or unmethylated oligonucleotide substrate containing 1 μM CG (Top Strand 5′-[…]-3′ (SEQ ID NO:18), Bottom Strand 5′-[…]-3′ (SEQ ID NO:19)) and 1 μM S-adenosyl-L-[methyl-^3H]Methionine™ (Amersham TRK581 60-85 Ci/mmol). […] After drying the plate, 30 μl Microscint-PS™ scintillation fluid (Packard) was added to each well, and tritium was quantitated using the TopCount™ NXT liquid scintillation counter (Packard). […]

[12] = n 4, 275-850 mg/M^2 over 10 days sq

Chain of MeCP2_MBD binding to 5-mCpG containing DNA (P51608 90-162): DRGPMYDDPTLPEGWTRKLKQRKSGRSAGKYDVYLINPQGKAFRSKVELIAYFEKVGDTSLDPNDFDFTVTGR

SMILES: c1ccc(Nc2nc(-c3ccccn3)cs2)nc1 [(I)]
- IC50 [1]: 10.5 µM

SMILES: Oc1cccc(Nc2nc(-c3ccccn3)cs2)c1 [(II)]
- DNMT1 Inhibition (IC50 in μM) [2]: No Inhibition
- IC50 [1]: > 200 µM

SMILES: Cn1c2ccccc2n2cc(-c3ccc([N+](=O)[O-])cc3)nc12 [(III)]
- DNMT1 Inhibition (IC50 in μM) [2]: No Inhibition
- IC50 [1]: > 200 µM

SMILES: COc1ccccc1-c1nc(-c2cccc([N+](=O)[O-])c2)no1 [(X)]
- DNMT1 Inhibition (IC50 in μM) [2]: No Inhibition
- IC50 [1]: > 200 µM

SMILES: COc1ccc([N+](=O)[O-])cc1C1NN=C(c2ccccc2)S1 (stereo not drawn) [(XIX)]
- DNMT1 Inhibition (IC50 in μM) [2]: No Inhibition
- MBD2 Binding Inhibition (IC50 in μM) [3]: In- conclusive

SMILES: Oc1ccc(C2NN=C(c3ccccc3)S2)cc1 (stereo not drawn) [(XVII)]
- DNMT1 Inhibition (IC50 in μM) [2]: No Inhibition
- IC50 [1]: 16.9 µM

SMILES: COc1cc(O)cc(Br)c1/C=N/Nc1nc2ccccc2s1 [(XVIII)]
- DNMT1 Inhibition (IC50 in μM) [2]: No Inhibition
- IC50 [1]: > 200 µM

SMILES: OC1(C(F)(F)F)CC(c2ccccc2)=NN1C(=S)c1ccccc1 (stereo not drawn) [(XX)]
- DNMT1 Inhibition (IC50 in μM) [2]: No Inhibition
- IC50 [1]: > 200 µM

SMILES: Clc1ccc(C2NN=C(c3ccccc3)S2)cc1 (stereo not drawn) [(XXI)]
- DNMT1 Inhibition (IC50 in μM) [2]: No Inhibition
- IC50 [1]: 33.9 µM

SMILES: Oc1ccc2ccccc2c1C1NN=C(c2ccccc2)S1 (stereo not drawn) [(XXII)]
- DNMT1 Inhibition (IC50 in μM) [2]: No Inhibition
- IC50 [1]: 0.61 µM

SMILES: Nc1cccc(-c2nnc(-c3ccccc3)o2)c1 [(XXIII)]
- DNMT1 Inhibition (IC50 in μM) [2]: No Inhibition
- IC50 [1]: 8.59 µM

SMILES: COc1ccc(NC(=O)Nc2cccc3cccnc23)cc1 [(XXIV)]
- IC50 [1]: 2.81 µM

SMILES: CCOc1ccc(Nc2nc(-c3ccccn3)cs2)cc1 [(XXV)]
- IC50 [1]: > 200 µM

SMILES: Nc1ncn([C@@H]2O[C@H](CO)[C@@H](O)[C@H]2O)c(=O)n1 [Compound 5-aza-C, 5-az-cytidine]
- % Response ([4]; n 5, 300-700 mg/M^2 over 8 days iv): 40%
- % Response ([5]; 1.6 mg/kg over 10 days iv): 17%
- % Response [5, 12]: 25%
- % Response ([5]; n 11, 300-700 mg/M^2 over 8 days iv): 63%
- % Response ([5]; n 31, 600 mg/M^2 over 10 days iv): 6%
- % Response ([6]; n 4, 275-850 mg/M^2 over 8 days sq): 0%
- % Response ([6]; n 6, 300-700 mg/M^2 over 10 days iv): 33%
- % Response ([6]; n 27, dose not given): 4%
- % Response [7, 12]: 25%

SMILES: Nc1ncn([C@H]2C[C@H](O)[C@@H](CO)O2)c(=O)n1 [Compound 5-aza-dC, 5-aza-deoxycytidine]
- % Response ([4]; n 18, 225 mg/M^2 over 1 day iv): 0%
- % Response [8]: 16%
- % Response ([6]; n 42, 225 mg/M^2 over 1 day iv): 0%
- % Response [9]: 20%
- % Response ([7]; n 24, 225 mg/M^2 over 10 days iv): 8%

SMILES: NC1=NCN([C@@H]2O[C@H](CO)[C@@H](O)[C@H]2O)C(=O)N1 [dh-5-aza-C]
- % Response ([4]; n 40, 5 g/M^2 over 1 day cl): 20%
- % Response ([10]; n 29, 1500 mg/M^2 over 5 days cl): 17%
- % Response ([10]; n 41, 1500 mg/M^2 over 5 days cl): 17%

SMILES: CCN(CC)CCNC(=O)c1ccc(N)cc1 [procainamide, reference compound]
- pKi [11]: 2.85
- pKi ([2]; mixed mechanism, read-out: Ki for inhibition of DNMT1): 5.14

Reference: patent US9034574B2, “Agents for reversing epigenetic silencing of genes” (The Johns Hopkins University, priority 2006, dated 2015)
